Test results from patent US8501911B2, “Methods of reducing inflammation and mucus hypersecretion” (Biomarck Pharmaceuticals, Ltd, priority 1999, dated 2013).
Where “and” joins values, the source holds several entries; their conditions need not be identical. Identical values can stand only once. Residues, ends and D or L forms follow the SMILES beside them. *: point of attachment. Myristoyl = CCCCCCCCCCCCCC(=O)*

Columns and labels:
[1] = system: LPS-primed human neutrophils; assay: MPO secretion from LPS-primed human neutrophils; assay type: cell-based
Experimental: Results-I-11 and Results-I-12 show MPO secretion from LPS-primed human neutrophils as a model for humans, and Results-I-13, Results-I-14, and Results-I-15 show MPO secretion from LPS-primed canine neutrophils as a model for canines. In all of these experiments, isolated neutrophils were stimulated with LPS at a concentration of 1×10^−6 M for 10 minutes at 37° C. prior to adding the stimuli. The LPS primes the cells so they can respond to a secretagogue.
Thus, in one comparative experiment, when absorbance was monitored at 450 nm while observing MPO secretion from LPS-primed human neutrophils, Results-I-11 were obtained as follows.
In another comparative experiment, when absorbance was monitored at 450 nm while observing MPO secretion from LPS-primed human neutrophils, Results-I-12 were obtained as follows.
MPO Colorimetric Enzyme Assay—Samples were assayed for MPO activity in 96 well round bottom microtiter plates using a sandwich ELISA kit (R & D Systems, Minneapolis, Minn.). Briefly, 20 microliters of sample is mixed with 180 microliters of substrate mixture containing 33 mM potassium phosphate, pH 6.0, 0.56% Triton X-100, 0.11 mM hydrogen peroxide, and 0.36 mM O-Diannisidine Dihydrochloride in an individual microtiter well. […] After mixing, the assay mixture was incubated at room temperature for 5 minutes, and MPO enzyme activity determined spectrophotometrically at 550 nanometers. […]

[2] = system: human bronchial epithelial cells; assay: Basal (constitutive) mucin secretion by human bronchial epithelial cells; assay type: cell-based; details: peptide 100 μM, one hour incubation, no PMA or 8-Br-cGMP
Experimental: Mucus secreted from the airway epithelial cells in vitro after stimulation by activators was assessed using an ELISA (antibody capture method) (E. Harlow, D. Lane. “Antibodies: A Laboratory Manual.” New York: Cold Spring Harbor Laboratory Press, 1988), wherein the collected mucus is bound directly to the ELISA plate. Mucus was detected using an antibody raised against monkey airway mucus (Lin et al. Am J Respir Cell Mol Biol 1:41, 1989).
The MANS peptide (100 μM) was also found to decrease constitutive (basal) mucus secretion by one hour incubation. Cells were treated as described above except that no PMA or 8-Br-cGMP was used. […] Results, designated as Results-M-1B, are presented as follows and show the inhibition of basal mucin secretion by human bronchial epithelial cells exposed to the MANS peptide (SEQ ID NO: 1) or a negative control peptide consisting of the same amino acids as the MANS peptide, but in random order (RNS peptide; random N-terminal sequence (SEQ ID NO: 26):
The effect of MA-PSD peptide (1, 10 and 100 μM) on basal mucin secretion was also measured. Cells as described above were incubated for one hour with the MA-PSD peptide (no PMA or 8-Br-cGMP).

human neutrophils = assay: MPO secretion from isolated human neutrophils stimulated with PMA+8-Br-cGMP; assay type: cell-based
Experimental: MPO Colorimetric Enzyme Assay—Samples were assayed for MPO activity in 96 well round bottom microtiter plates using a sandwich ELISA kit (R & D Systems, Minneapolis, Minn.). Briefly, 20 microliters of sample is mixed with 180 microliters of substrate mixture containing 33 mM potassium phosphate, pH 6.0, […], 0.11 mM hydrogen peroxide, and 0.36 mM O-Diannisidine Dihydrochloride in an individual microtiter well. The final concentrations in the assay mixture are: 30 mM potassium phosphate, pH 6.0, 0.05% Triton X-100, 0.1 mM hydrogen peroxide, and 0.32 mM O-Diannisidine Dihydrochloride. […] Samples were assayed in duplicate.

NHBE cells = assay: Cytotoxicity / metabolic activity of NHBE cells (LDH release, deoxyglucose uptake); assay type: cell-based, human; details: peptide 1-100 μM
Experimental: In Results-I-2B-1 and Results-I-2B-2, the MANS peptide blocked mucin hypersecretion induced by PMA+8-Br-cGMP or UTP in a concentration-dependent manner. NHBE cells were preincubated with the indicated peptide for 15 min and then exposed to PMA (100 nM)+8-Br-cGMP (1 μM) for 15 min or UTP (100 μM) for 2 h. Mucin secretion was measured by ELISA.
Cytotoxicity Assay—All reagents used in treating NHBE cells were examined for cytotoxicity by measuring the total release of lactate dehydrogenase from the cells. The assay was carried out using the Promega Cytotox 96 Kit according to the manufacturer's instructions. All experiments were performed with reagents at non-cytotoxic concentrations.

[3] = system: ozone-induced neutrophil migration into the airways; assay: Mouse model of ozone-induced COPD (BAL analysis); assay type: in vivo; details: for % Neutrophils found in BAL fluid: intratracheal 1.0 mM peptide 30 min before ozone 2 hours (PBS + Ozone 21.4); for IFNγ in BAL fluid: peptide pretreatment then ozone (PBS + ozone approx. 18); for IL-6 in BAL fluid: peptide pretreatment then ozone (PBS + ozone approx. 197); for KC in BAL fluid: peptide pretreatment then ozone (PBS + ozone approx. 240); for % Inhibition of neutrophil migration into BAL fluid: relative to control group treated with PBS
Experimental: Ten-week-old Balb/C female mice were obtained from Charles River laboratories and housed under NIH guidelines in groups of 5 per cage. The animals received standard rodent diet and filtered water ad libitum. Three treatment groups of mice, 5 animals in each group, were each anesthetized by intraperitoneal injection of Ketamine (100 mg/kg) and Xylazine (20 mg/kg) and then pretreated by intratracheal administration with […] of either PBS alone, or a solution of 1.0 mM MANS peptide in PBS, or a solution of a 1.0 mM of a MANS-fragment-peptide designated as SEQ ID NO: 15 (MA-GAQFSKTAAK) in PBS. After 30 minutes, the animals were then placed in the appropriate custom-made chamber for ozone or forced air exposures. The animals were exposed to ozone for 2 hours (at ozone concentrations of 1-10 ppm by a slightly modified method described by Haddad et al, 1995. (Haddad E-B, Salmon M, Sun J, Liu S, Das A, Adcock I, Barnes P J, and Chung K F, FEBS Letters, 363:285-288, 1995). The ozone was generated using an ozone generator apparatus model OL80F/B from OzoneLab, Burton, British Columbia, Canada. Ozone concentration was continuously monitored using a Teledyne Photometric O3 Analyzer (model 400E, Teledyne Instruments, City of Industry, Calif.). Two additional groups of mice, each without any pretreatment, were either exposed to ozone under the same conditions or exposed to forced air under conditions similar to the ozone treatment group but absent ozone. After exposure, the animals were sacrificed by exsanguination and the lungs were serially lavaged 2 times with 1.0 mL aliquots of PBS. The collected bronchoalveolar lavage (BAL) fluid was centrifuged to remove the cells for subsequent counting and differential analysis. Recovered lavage fluid was used for protein and additional analysis of IL-6, IFNγ, and KC (murine IL-8 analog) by ELISA assay (assay kits obtained from R&D Systems, Minneapolis, Minn.).

[4] = peptide 1 μM + 100 nM PMA+10 μM 8-Br-cGMP, unstimulated control 0.076
[5] = peptide 10 μM + 100 nM PMA+10 μM 8-Br-cGMP
[6] = peptide 100 μM + 100 nM PMA+10 μM 8-Br-cGMP

| SMILES | Absorbance reading at 450 nm (MPO secretion) ([1]; cGMP alone, concentration not given) | Basal mucin secretion level relative to control [2] [%] | Absorbance at 450 nm (MPO secretion) (human neutrophils; [4]) | Absorbance at 450 nm (MPO secretion) (human neutrophils; [5]) | Absorbance at 450 nm (MPO secretion) (human neutrophils; [6]) | Lactate dehydrogenase release (NHBE cells) | [3H]deoxyglucose uptake (NHBE cells) | Diminished IL-6 levels (inhibition) vs. PBS control ([3]; after ozone exposure) | Effect on interferon-γ levels ([3]; after ozone exposure) | Reduced neutrophil cell infiltration in the BAL fluid vs. PBS control ([3]; after ozone exposure) | Diminished IL-6 levels (inhibition) vs. PBS control ([3]; after ozone exposure, listed as MANS) | % Neutrophils found in BAL fluid [3] [%] | IFNγ in BAL fluid [3] | IL-6 in BAL fluid [3] | KC in BAL fluid [3] | % Inhibition of neutrophil migration into BAL fluid [3] [%] | Absorbance reading at 450 nm (MPO secretion) ([1]; 10 nM PMA, medium control 0.15) | Diminished KC concentrations (inhibition) vs. PBS control ([3]; after ozone exposure) |
| --- | --- | --- | --- | --- | --- | --- | --- | --- | --- | --- | --- | --- | --- | --- | --- | --- | --- | --- |
| Nc1nc2c(nc(Br)n2[C@@H]2O[C@@H]3COP(=O)(O)O[C@H]3[C@H]2O)c(=O)[nH]1 [8-Br-cGMP] | 0.155 |  |  |  |  |  |  |  |  |  |  |  |  |  |  |  |  |  |
| CCCCCCCCCCCCCC(=O)NCC(=O)N[C@@H](C)C(=O)N[C@@H](CCC(N)=O)C(=O)N[C@@H](Cc1ccccc1)C(=O)N[C@@H](CO)C(=O)N[C@@H](CCCCN)C(=O)N[C@H](C(=O)N[C@@H](C)C(=O)N[C@@H](C)C(=O)N[C@@H](CCCCN)C(=O)NCC(=O)N[C@@H](CCC(=O)O)C(=O)N[C@@H](C)C(=O)N[C@@H](C)C(=O)N[C@@H](C)C(=O)N[C@@H](CCC(=O)O)C(=O)N[C@@H](CCCNC(=N)N)C(=O)N1CCC[C@H]1C(=O)NCC(=O)N[C@@H](CCC(=O)O)C(=O)N[C@@H](C)C(=O)N[C@@H](C)C(=O)N[C@H](C(=O)N[C@@H](C)C(=O)O)C(C)C)[C@@H](C)O [MANS peptide] (Myristoyl-GAQFSKTAAKGEAAAERPGEAAVA-OH; C-terminus assumed) |  | 28 | 0.102 | 0.093 | 0.068 | neither the MANS nor the RNS peptide affected | neither the MANS nor the RNS peptide affected | approximately 85% | little effect | 93%±5% | 88%±8% | 1.5 | approximately 13 pg/ml | approximately 23 pg/ml | approximately 60 pg/ml | 93.0 |  |  |
| CCCCCCCCCCCCCC(=O)O[C@@H]1[C@@H](C)[C@@]2(O)[C@@H](C=C(CO)C[C@]3(O)C(=O)C(C)=C[C@@H]23)[C@@H]2C(C)(C)[C@]12OC(C)=O [PMA, phorbol 12-myristate 13-acetate] |  |  |  |  |  |  |  |  |  |  |  |  |  |  |  |  | 0.19 |  |
| CCCCCCCCCCCCCC(=O)NCC(=O)N[C@H](C(=O)N[C@@H](C)C(=O)N1CCC[C@H]1C(=O)N[C@@H](C)C(=O)N[C@@H](C)C(=O)N[C@@H](CCC(=O)O)C(=O)NCC(=O)N[C@@H](C)C(=O)NCC(=O)N[C@@H](C)C(=O)N[C@@H](CCC(=O)O)C(=O)N[C@H](C(=O)N[C@@H](CCCCN)C(=O)N[C@@H](CCCNC(=N)N)C(=O)N[C@@H](C)C(=O)N[C@@H](CO)C(=O)N[C@@H](C)C(=O)N[C@@H](CCC(=O)O)C(=O)N[C@@H](C)C(=O)N[C@@H](CCCCN)C(=O)N[C@@H](CCC(N)=O)C(=O)N[C@@H](C)C(=O)N[C@@H](Cc1ccccc1)C(=O)O)C(C)C)[C@@H](C)O [RNS peptide, reference compound] (Myristoyl-GTAPAAEGAGAEVKRASAEAKQAF-OH; C-terminus assumed) |  | 90 | 0.099 | 0.100 | 0.100 | neither the MANS nor the RNS peptide affected | neither the MANS nor the RNS peptide affected |  |  |  |  |  |  |  |  |  |  |  |
| CCCCCCCCCCCCCC(=O)NCC(=O)N[C@@H](C)C(=O)N[C@@H](CCC(N)=O)C(=O)N[C@@H](Cc1ccccc1)C(=O)N[C@@H](CO)C(=O)N[C@@H](CCCCN)C(=O)N[C@H](C(=O)N[C@@H](C)C(=O)N[C@@H](C)C(=O)N[C@@H](CCCCN)C(=O)O)[C@@H](C)O [SEQ ID NO: 15, N-myristoyl-GAQFSKTAAK] (Myristoyl-GAQFSKTAAK-OH; C-terminus assumed) |  |  |  |  |  |  |  | 75%±8% and ~75% | little effect | 47.7%±5% |  | 11.2 | approximately 9 pg/ml | approximately 49 pg/ml | approximately 147 pg/ml | 47.7 |  | 38%±5% and ~40% |
